What was measured:
[1] = system: return activated sludge (RAS) seed microorganisms; assay: Aerobic respirometry: specific oxygen uptake rate (SOUR) of iron-dosed, heat-dried biosolids; settings: for time until SOUR reached below the stable criteria requirement: 1.5% ferrate as iron by TS
Procedure: Thickened sewage sludge was poured into ster[…] & Bird B-Ker polycarbonate jars with a sampling port for flash mixing and flocculation in amounts of 1 L to 2 L. The ferric chloride/ferrate dose was delivered by syringe to the jar test beakers. The ferric chloride dose was calculated by obtaining the total solids content of the sludge sample first and taking 2% of the result. The ferrate dose was calculated after computing the final synthesized concentration of ferrate in buffer solution. Both the ferrate and ferric chloride doses were based on mass rather than volume. The ferrate solution strength was calculated based on mass instead of volume to minimize errors in the dose calculations; these errors are associated with off-gases from the ferrate solution changing the volume of ferrate within the syringe. Of the six jars, one jar of raw sludge served as the control and five jars were used to test various dosages. The ferric chloride was added first while the sludge samples were mixed at a speed of 300 rpm; after thorough mixing (about 10 minutes), the ferrate was added and the mixture was mixed at 300 rpm for about 10 minutes until thoroughly mixed. Well-mixed sludge was then transferred into centrifuge tubes and centrifuged, and then the settled solids were collected and spread on a baking pan and heat dried for about 30 minutes. Batch respirometer tests were conducted by dosing microbial culture with an amount of organic chemical or wastewater followed by monitoring the reactions through measurement of oxygen uptake in aerobic tests or gas production in anoxic and methanogenic tests. Batch tests are transient, non-steady-state reactions in which both substrate and biomass concentrations change throughout the biodegradation reaction. The procedures generally involve the following steps. A sample of wastewater or solution of test chemicals is placed in each of a number of respirometer vessels. Nutrients and trace minerals are added in amounts sufficient to support biological growth and a buffer is added to maintain the pH within an acceptable range. A seed culture is added to provide microorganisms that can degrade the organic constituents in the test samples. A caustic scrubber is suspended within the headspace of the reaction vessel to absorb carbon dioxide (only in instruments using headspace oxygen transfer), and chemicals are added to inhibit nitrification in cases where only aerobic carbonaceous oxidation reactions are to be monitored. The reaction vessels are attached to a device suitable for measuring oxygen uptake or gas production, and oxygen uptake or gas production is measured over time periods ranging from a few minutes to 90 days, depending on the test objectives. The aerobic conditions of respirometry assessments were designed to simulate the scenario that the treated biosolids were fully seeded with an unlimited oxygen supply. The anaerobic conditions mimicked fully seeded biosolids without oxygen. The return activated sludge from the New Orleans' POTW was used as seed for its already acclimated microorganisms. For the same reasons, the effluent was selected as the dilution water to increased moisture content. After the heat drying process, the product was tested for total solids contents. […] The system was then sealed and set up in a 20° C. water bath for real time monitoring on oxygen uptake for 96 hours. pH and ORP values were assessed at the beginning and the end of the tests. The sludge was thickened to achieve a 5% solids content level. After the addition of ferric chloride, ferrate or both followed by centrifugation, the sludge cake was placed in an oven at 80° C. for 30 minutes to mimic the heat drying process. The dried sludge was then tested for stability by adding 98%-99% of moisture content. There were three exogenous variables: buffer, feed and seed. The buffer was 1.5M KH2PO4 at pH 7.0. […]

[2] = ORP of treated heat-dried biosolids; type: physicochemical; settings: post treatment
Procedure: After the heat drying process, the product was tested for total solids contents. Based on the results, a 2% solution of said product in effluent was made and poured into 600 mL narrow neck glass bottles, along with a seeding of 3000 mg/L for each bottle. The system was then sealed and set up in a 20° C. water bath for real time monitoring on oxygen uptake for 96 hours. pH and ORP values were assessed at the beginning and the end of the tests.

biomass = settings: endogenous respiration, no added oxygen or substrate; cited from earlier work

Compound | stabilization (SOUR) ([1]; 1.3% ferrate as the iron dose, buffer, seed and feed in respirometer) | time until SOUR reached below the stable criteria requirement ([1]; moisture content 98%) [h] | time until SOUR reached below the stable criteria requirement ([1]; moisture content 99%) [h] | stabilization (SOUR) ([1]; ferrate dosages 1.2% to 4.9%, not neutralized with buffer (pH higher than 10), acetate and seed added) | ORP levels in the biosolids [2] | stability of heat-dried biosolids ([1]; 1.4% to 1.5% ferric chloride, seeded) | SOUR ([1]; 1.4% to 1.5% ferric chloride, seeded, for 5 to 10 hours) [mg O2/h/g TS] | time heat-dried biosolids observed to be stable ([1]; dose larger than 2.3% ferric chloride, seeded) | stability of heat-dried biosolids ([1]; ferric chloride-treated, seed not added) | stability of heat-dried biosolids ([1]; with addition of seed, ferric chloride doses less than 2.3%) | stimulation of biomass during dosing (biomass)
[O]=[Fe](=[O])([O-])[O-] [ferrate] | no stabilization | 5 | 9 | stable biosolids | around 0.1 V |  |  |  |  |  | 
[Cl][Fe]([Cl])[Cl] [ferric chloride] |  |  |  |  | around 0.1 V | not stable | > 1.5 | at least 2 days | stable | not stable | did not stimulate the biomass
O=S(=O)([O-])[O-].[Fe+2] [ferrous sulphate] |  |  |  |  |  |  |  |  |  |  | did not stimulate the biomass
